Reference: US20110118226A1 (priority 2008, published 2011)

Assays:
[1] = Stability of danazol in analysis medium and receptor phase (3% cetrimide solution); assay type: physicochemical; settings: analysis medium (mobile phase) and receptor phase (3% cetrimide solution)
[2] = cited from earlier work

C#C[C@]1(O)CC[C@H]2[C@@H]3CCC4=Cc5oncc5C[C@]4(C)[C@H]3CC[C@@]21C [Danazol, (17α)-Pregna-2,4-dien-20-yno[2,3-d]isoxazol-17β-ol]
Time for which danazol was stable [1]: 30 h | Bioavailability of oral danazol [2]: 11%
